Measurements: ChEMBL document CHEMBL1152761, “Synthesis of novel substituted pyrazole-5-carbohydrazide hydrazone derivatives and discovery of a potent apoptosis inducer in A549 lung cancer cells” (Bioorg Med Chem, 2009)
Activity calls are given as the source filed them. The calls are words filed in the database; no cut-off is given here.

Key:
Assay type in all cases: functional, cell-based
A549 [1] = test: Growth inhibition of human A549 cells after 48 hrs by MTT assay; conditions: for IC50: A549, 48 h
A549 [2] = test: Induction of apoptosis in human A549 cells assessed as cell shrinkage like morphological changes at 1 uM after 48 hrs by light microscopy
A549 [3] = test: Induction of apoptosis in human A549 cells assessed as DNA fragmentation after 48 hrs by acridine orange staining
A549 [4] = test: Induction of apoptosis in human A549 cells assessed as DNA fragmentation after 48 hrs by TUNEL assay
A549 [5] = test: Induction of necrosis in human A549 cells assessed as LDH release at 0.1 uM after 24 to 48 hrs
A549 [6] = test: Induction of necrosis in human A549 cells assessed as LDH release at 0.5 uM after 24 to 48 hrs
A549 [7] = test: Induction of necrosis in human A549 cells assessed as LDH release at 1 uM after 24 to 48 hrs

Compound | IC50 (A549 [1]) [µM] | Activity (A549 [1]) | also measured
C/C(=N\NC(=O)c1cc(-c2ccccc2)nn1Cc1ccc(C(C)(C)C)cc1)c1cc(Cl)ccc1O | 2.77 | Dose-dependent effect | –
COc1ccc(-c2cc(C(=O)N/N=C(\C)c3cc(C)ccc3O)n(Cc3ccc(C(C)(C)C)cc3)n2)cc1 | 10.4 | Dose-dependent effect | –
C/C(=N\NC(=O)c1cc(-c2ccc(Cl)cc2)nn1Cc1ccc(C(C)(C)C)cc1)c1cc(Cl)ccc1O | 0.28 | Dose-dependent effect | Activity (A549 [2]): Active; Activity (A549 [3]): Active; Activity (A549 [4]): Active; Activity (A549 [5]): inactive; Activity (A549 [6]): inactive; Activity (A549 [7]): inactive
C/C(=N\NC(=O)c1cc(-c2ccc(Cl)cc2)nn1Cc1ccc(C(C)(C)C)cc1)c1cc(Cl)cc(Cl)c1O | 7.9 | Dose-dependent effect | –

Now from value to molecule, other results behind:

IC50 (A549 [1]) [µM] | Compound | Activity (A549 [1]) | also measured
2.08 | COc1ccc(-c2cc(C(=O)N/N=C(\C)c3cc(Cl)cc(Cl)c3O)n(Cc3ccc(C(C)(C)C)cc3)n2)cc1 | Dose-dependent effect | –
9.62 | COc1ccc(-c2cc(C(=O)N/N=C(\C)c3cc(Cl)ccc3O)n(Cc3ccc(C(C)(C)C)cc3)n2)cc1 | Dose-dependent effect | –
2.49 | C/C(=N\NC(=O)c1cc(-c2ccc(Cl)cc2)nn1Cc1ccc(C(C)(C)C)cc1)c1cc(C)ccc1O | Dose-dependent effect | –
6.1 | C/C(=N\NC(=O)c1cc(-c2ccccc2)nn1Cc1ccc(C(C)(C)C)cc1)c1cc(C)ccc1O | Dose-dependent effect | –
3.17 | C/C(=N\NC(=O)c1cc(-c2ccccc2)nn1Cc1ccc(C(C)(C)C)cc1)c1cc(Cl)cc(Cl)c1O | Dose-dependent effect | –
